Two molecules from PMC10714400, “Antimicrobial Peptide–Peptoid Hybrids with and without Membrane Disruption” (ACS Infectious Diseases, 2023) can be followed below.

The test system of assay [1] is P. aeruginosa PAO1. The assay can be described thus: Transmission electron microscopy (TEM). The settings on record: P. aeruginosa PAO1, 10 × MIC, […] MH at pH 8.5, 2 h at 37 °C. It counts as cell-based, Pseudomonas aeruginosa. Here is the method:
Scale bars are 500 nm and 1 μm. Red arrows: membrane perturbations. Blue arrows: intracellular aggregation. Yellow arrows: empty area within the cell.
(§1) Just before the samples were further prepared for the microscopy, surviving bacteria were quantified by plating 10-fold dilutions of samples in sterilized normal saline (NaCl 0.9%) on LB agar plates. […] The assay was performed in triplicate. Each bacteria sample was centrifuged at 12,000 rpm for 3 min, and the supernatant was discarded. The samples were then further processed and imaged using our previously described protocol.[64]

Assay [2] relates to P. aeruginosa PAO1. In words: Bacterial count after treatment, before TEM sample preparation. It counts as cell-based, Pseudomonas aeruginosa. The conditions noted are these: P. aeruginosa PAO1, […] MH pH 8.5, 10x MIC. Here is the method: as §1
8. Transmission electron microscopy (TEM)
Table S4: Bacterial counts, 2 hours after treatment, before TEM sample preparation. Data represents triplicates.
Bacteria count after treatment at 10x MIC and 2 h of incubation at 37 °C
Control (non-treated cells) 1 × 10^8 CFU (100)

Where a SMILES comes first, the peptide text is derived from it. [ ]: non-standard residue; d: D form. Nleu = CC(C)CNCC(=O)O; Nlys = NCCCCNCC(=O)O

In the case of `CC(C)C[C@H](NC(=O)CN(CC(C)C)C(=O)[C@H](CC(C)C)NC(=O)CN(CCCCN)C(=O)[C@H](CC(C)C)NC(=O)CN(CC(C)C)C(=O)[C@H](CCCCN)NC(=O)CN(CC(C)C)C(=O)[C@H](CC(C)C)NC(=O)CN(CCCCN)C(=O)[C@@H](N)CCCCN)C(N)=O` [EB9, KkLlKlLkLlL] (H-K[Nlys]L[Nleu]K[Nleu]L[Nlys]L[Nleu]L-NH2), the “TEM micrographs, changes in treated bacteria” value in assay [1] is on record as “aggregation of intracellular components as the major effect”. Besides, the “Bacteria count after treatment at 10x MIC and 2 h of incubation at 37 °C (% of control)” value in assay [2] is listed as 0.01 % of control.
As for “H-KKLLKLLKLLL-NH2 [ln65, reference compound]”, the “TEM micrographs, changes in treated bacteria” value in assay [1] is “strong membrane-disruptive activity”. The “Bacteria count after treatment at 10x MIC and 2 h of incubation at 37 °C (% of control)” value in assay [2] is 0.01 % of control.
